# Laboratory results published in patent US20230150970A1, “AMINOPYRIMIDINE DERIVATIVES AND THEIR USE AS ARYL HYDROCARBON RECEPTOR MODULATORS” (DONG-A ST CO., LTD., priority 2020, published 2023).
# Biological target: T1, AhR (Homo sapiens, UniProt P35869)
# T1 sequence (P35869 11-848): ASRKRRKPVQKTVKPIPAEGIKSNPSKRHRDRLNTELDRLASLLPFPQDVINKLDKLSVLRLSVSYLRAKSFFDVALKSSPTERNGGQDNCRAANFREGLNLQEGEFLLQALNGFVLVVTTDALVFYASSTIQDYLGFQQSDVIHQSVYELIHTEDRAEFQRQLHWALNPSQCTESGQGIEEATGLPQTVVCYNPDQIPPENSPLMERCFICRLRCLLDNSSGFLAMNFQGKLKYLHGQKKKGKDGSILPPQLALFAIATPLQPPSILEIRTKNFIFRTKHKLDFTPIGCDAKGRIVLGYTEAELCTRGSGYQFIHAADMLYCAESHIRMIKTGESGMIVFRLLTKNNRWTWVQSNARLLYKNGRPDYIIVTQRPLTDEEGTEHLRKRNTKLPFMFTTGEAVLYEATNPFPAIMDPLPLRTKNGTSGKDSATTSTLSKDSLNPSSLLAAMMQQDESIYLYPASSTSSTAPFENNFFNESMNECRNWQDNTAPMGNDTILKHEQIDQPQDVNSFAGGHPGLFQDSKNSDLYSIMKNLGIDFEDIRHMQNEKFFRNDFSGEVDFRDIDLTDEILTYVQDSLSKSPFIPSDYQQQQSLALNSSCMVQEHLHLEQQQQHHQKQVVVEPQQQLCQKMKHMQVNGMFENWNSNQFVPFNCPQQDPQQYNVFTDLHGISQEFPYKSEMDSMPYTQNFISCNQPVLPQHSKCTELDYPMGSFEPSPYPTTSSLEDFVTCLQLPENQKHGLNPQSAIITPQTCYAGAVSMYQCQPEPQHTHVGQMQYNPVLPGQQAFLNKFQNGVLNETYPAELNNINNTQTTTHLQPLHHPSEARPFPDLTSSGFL
# Assay: In Vitro Assay 1: XRE-luciferase reporter assay, antagonism in human cell line (HepG2)
# Conditions: Assay 1: AhR-Luc Human Antagonism (IC50, nM), values marked *: kynurenine 50 μM, 6 hours
row,IC50 [nM],Structure (SMILES)
1,100 to 1000,"NC1CCN(c2cc(-c3ccc(Cl)cc3)nc(-c3cccnc3)n2)CC1 [Example 64, 1-(6-(4-chlorophenyl)-2-(pyridin-3-yl)pyrimidin-4-yl)piperidin-4-amine]"
2,100 to 1000,"NCC1CCN(c2cc(-c3ccc(Cl)cc3)nc(-c3cccnc3)n2)CC1 [Example 65, (1-(6-(4-chlorophenyl)-2-(pyridin-3-yl)pyrimidin-4-yl)piperidin-4-yl)methanamine]"
3,> 1000,"O[C@@H]1CCC[C@@H]1Nc1cc(-c2ccc(Cl)cc2)nc(-c2cccnc2)n1 [Example 66, (1R,2S)-2-((6-(4-chlorophenyl)-2-(pyridin-3-yl)pyrimidin-4-yl)amino)cyclopentan-1-ol]"
4,100 to 1000,"O[C@H]1CCC[C@@H]1Nc1cc(-c2ccc(Cl)cc2)nc(-c2cccnc2)n1 [Example 67, (1S,2S)-2-((6-(4-chlorophenyl)-2-(pyridin-3-yl)pyrimidin-4-yl)amino)cyclopentan-1-ol]"
5,100 to 1000,"O[C@@H]1CCCC[C@H]1Nc1cc(-c2ccc(Cl)cc2)nc(-c2cccnc2)n1 [Example 69, (1R,2R)-2-((6-(4-chlorophenyl)-2-(pyridin-3-yl)pyrimidin-4-yl)amino)cyclohexan-1-ol]"
6,10 to 100,"Clc1ccc(-c2cc(N3CCOCC3)nc(-c3cccnc3)n2)cc1 [Example 71, 4-(6-(4-chlorophenyl)-2-(pyridin-3-yl)pyrimidin-4-yl)morpholine]"
7,> 1000,"Clc1ccc(-c2cc(NCC3CNCCO3)nc(-c3cccnc3)n2)cc1 (stereo not drawn) [Example 72, 6-(4-chlorophenyl)-N-(morpholin-2-ylmethyl)-2-(pyridin-3-yl)pyrimidin-4-amine]"
8,> 1000,"Clc1ccc(-c2cc(N3CCC(N4CCOCC4)C3)nc(-c3cccnc3)n2)cc1 (stereo not drawn) [Example 73, 4-(1-(6-(4-chlorophenyl)-2-(pyridin-3-yl)pyrimidin-4-yl)pyrrolidin-3-yl)morpholine]"
9,100 to 1000,"Clc1ccc(-c2cc(N3CCSCC3)nc(-c3cccnc3)n2)cc1 [Example 74, 4-(6-(4-chlorophenyl)-2-(pyridin-3-yl)pyrimidin-4-yl)thiomorpholine]"
10,> 1000,"Clc1ccc(-c2cc(NCCCN3CCOCC3)nc(-c3cccnc3)n2)cc1 [Example 75, 6-(4-chlorophenyl)-N-(3-morpholinopropyl)-2-(pyridin-3-yl)pyrimidin-4-amine]"
11,> 1000,"C[C@@H]1CNCCN1c1cc(-c2ccc(Cl)cc2)nc(-c2cccnc2)n1 [Example 76, (R)-4-(4-chlorophenyl)-6-(2-methylpiperazin-1-yl)-2-(pyridin-3-yl)pyrimidine]"
12,> 1000,"C[C@@H]1CN(C(=O)c2ccccc2)CCN1c1cc(-c2ccc(Cl)cc2)nc(-c2cccnc2)n1 [Example 77, (R)-(4-(6-(4-chlorophenyl)-2-(pyridin-3-yl)pyrimidin-4-yl)-3-methylpiperazin-1-yl)(phenyl)methanone]"
13,> 1000,"COC(=O)[C@H]1CN(c2cc(-c3ccc(Cl)cc3)nc(-c3cccnc3)n2)CCN1 [Example 78, methyl (R)-4-(6-(4-chlorophenyl)-2-(pyridin-3-yl)pyrimidin-4-yl)piperazine-2-carboxylate]"
14,> 1000,"Clc1ccc(-c2cc(N3CCN(c4cccc(Cl)c4Cl)CC3)nc(-c3cccnc3)n2)cc1 [Example 80, 4-(4-chlorophenyl)-6-(4-(2,3-dichlorophenyl)piperazin-1-yl)-2-(pyridin-3-yl)pyrimidine]"
15,< 10,"COc1ccc(OC)c(CN2CCN(c3cc(-c4ccc(Cl)cc4)nc(-c4cccnc4)n3)CC2)c1 [Example 81, 4-(4-chlorophenyl)-6-(4-(2,5-dimethoxybenzyl)piperazin-1-yl)-2-(pyridin-3-yl)pyrimidine]"
16,< 10,"OCCN1CCN(c2cc(-c3ccc(Cl)cc3)nc(-c3cccnc3)n2)CC1 [Example 82, 2-(4-(6-(4-chlorophenyl)-2-(pyridin-3-yl)pyrimidin-4-yl)piperazin-1-yl)ethan-1-ol]"
17,10 to 100,"COc1ccccc1N1CCN(c2cc(-c3ccc(Cl)cc3)nc(-c3cccnc3)n2)CC1 [Example 83, 4-(4-chlorophenyl)-6-(4-(2-methoxyphenyl)piperazin-1-yl)-2-(pyridin-3-yl)pyrimidine]"
18,> 1000,"CCOc1ccccc1N1CCN(c2cc(-c3ccc(Cl)cc3)nc(-c3cccnc3)n2)CC1 [Example 84, 4-(4-chlorophenyl)-6-(4-(2-ethoxyphenyl)piperazin-1-yl)-2-(pyridin-3-yl)pyrimidine]"

row,IC50 [nM],Structure (SMILES)
1,100 to 1000,"Fc1ccccc1N1CCN(c2cc(-c3ccc(Cl)cc3)nc(-c3cccnc3)n2)CC1 [Example 85, 4-(4-chlorophenyl)-6-(4-(2-fluorophenyl)piperazin-1-yl)-2-(pyridin-3-yl)pyrimidine]"
2,10 to 100,"O=C(c1ccco1)N1CCN(c2cc(-c3ccc(Cl)cc3)nc(-c3cccnc3)n2)CC1 [Example 86, (4-(6-(4-chlorophenyl)-2-(pyridin-3-yl)pyrimidin-4-yl)piperazin-1-yl)(furan-2-yl)methanone]"
3,10 to 100,"Clc1ccc(-c2cc(N3CCN(CCc4ccccc4)CC3)nc(-c3cccnc3)n2)cc1 [Example 87, 4-(4-chlorophenyl)-6-(4-phenethylpiperazin-1-yl)-2-(pyridin-3-yl)pyrimidine]"
4,> 1000,"Clc1ccc(-c2cc(NCCN3CCNCC3)nc(-c3cccnc3)n2)cc1 [Example 88, 6-(4-chlorophenyl)-N-(2-(piperazin-1-yl)ethyl)-2-(pyridin-3-yl)pyrimidin-4-amine]"
5,10 to 100,"Clc1ccc(-c2cc(N3CCN(c4ccccn4)CC3)nc(-c3cccnc3)n2)cc1 [Example 89, 4-(4-chlorophenyl)-6-(4-(pyridin-2-yl)piperazin-1-yl)-2-(pyridin-3-yl)pyrimidine]"
6,10 to 100,"Clc1ccc(-c2cc(N3CCN(CCN4CCOCC4)CC3)nc(-c3cccnc3)n2)cc1 [Example 91, 4-(2-(4-(6-(4-chlorophenyl)-2-(pyridin-3-yl)pyrimidin-4-yl)piperazin-1-yl)ethyl)morpholine]"
7,10 to 100,"Clc1ccc(-c2cc(N3CCN(C/C=C/c4ccccc4)CC3)nc(-c3cccnc3)n2)cc1 [Example 93, trans-4-(4-chlorophenyl)-6-(4-cinnamylpiperazin-1-yl)-2-(pyridin-3-yl)pyrimidine]"
8,10 to 100,"Clc1ccc(-c2cc(N3CCN(c4ccccc4)CC3)nc(-c3cccnc3)n2)cc1 [Example 95, 4-(4-chlorophenyl)-6-(4-phenylpiperazin-1-yl)-2-(pyridin-3-yl)pyrimidine]"
9,< 10,"CCCN1CCN(c2cc(-c3ccc(Cl)cc3)nc(-c3cccnc3)n2)CC1 [Example 96, 4-(4-chlorophenyl)-6-(4-propylpiperazin-1-yl)-2-(pyridin-3-yl)pyrimidine]"
10,< 10,"Clc1ccc(-c2cc(N3CCN(Cc4ccc5c(c4)OCO5)CC3)nc(-c3cccnc3)n2)cc1 [Example 97, 4-(4-(benzo[d][1,3]dioxol-5-ylmethyl)piperazin-1-yl)-6-(4-chlorophenyl)-2-(pyridin-3-yl)pyrimidine]"
11,> 1000,"OC[C@@H]1CN(c2cc(-c3ccc(Cl)cc3)nc(-c3cccnc3)n2)CCN1 [Example 98, (S)-(4-(6-(4-chlorophenyl)-2-(pyridin-3-yl)pyrimidin-4-yl)piperazin-2-yl)methanol]"
12,10 to 100,"Fc1ccc(N2CCN(c3cc(-c4ccc(Cl)cc4)nc(-c4cccnc4)n3)CC2)cc1 [Example 99, 4-(4-chlorophenyl)-6-(4-(4-fluorophenyl)piperazin-1-yl)-2-(pyridin-3-yl)pyrimidine]"
13,> 1000,"CN1C(C)(C)CC(Nc2cc(-c3ccc(Cl)cc3)nc(-c3cccnc3)n2)CC1(C)C [Example 100, 6-(4-chlorophenyl)-N-(1,2,2,6,6-pentamethylpiperidin-4-yl)-2-(pyridin-3-yl)pyrimidin-4-amine]"
14,100 to 1000,"Clc1ccc(-c2cc(NC3CCCNC3)nc(-c3cccnc3)n2)cc1 (stereo not drawn) [Example 101, 6-(4-chlorophenyl)-N-(piperidin-3-yl)-2-(pyridin-3-yl)pyrimidin-4-amine]"
15,100 to 1000,"Clc1ccc(-c2cc(N3CCNCC3)nc(-c3cccnc3)n2)cc1 [Example 102, 4-(4-chlorophenyl)-6-(piperazin-1-yl)-2-(pyridin-3-yl)pyrimidine]"
16,> 1000,"C[C@@H]1CN(c2cc(-c3ccc(Cl)cc3)nc(-c3cccnc3)n2)C[C@H](C)N1 [Example 104, Cis-4-(4-chlorophenyl)-6-(3,5-dimethylpiperazin-1-yl)-2-(pyridin-3-yl)pyrimidine]"
17,10 to 100,"CCN1CCN(c2cc(-c3ccc(Cl)cc3)nc(-c3cccnc3)n2)CC1 [Example 106, 4-(4-chlorophenyl)-6-(4-ethylpiperazin-1-yl)-2-(pyridin-3-yl)pyrimidine]"
18,< 10,"CC(=O)N1CCN(c2cc(-c3ccc(Cl)cc3)nc(-c3cccnc3)n2)CC1 [Example 108, 1-(4-(6-(4-chlorophenyl)-2-(pyridin-3-yl)pyrimidin-4-yl)piperazin-1-yl)ethan-1-one]"
